Reference: ChEMBL document CHEMBL1137928, “Plasmepsin II inhibition and antiplasmodial activity of Primaquine-Statine 'double-drugs'” (Bioorg Med Chem Lett, 2004)

Columns and labels:
[1] = tested on: Plasmodium falciparum; test: Inhibition of Plasmodium falciparum; type: functional, organism-based
[2] = target: T1, Plasmepsin II (Plasmodium falciparum, UniProt P46925); test: In vitro concentration required for inhibition of Plasmodium falciparum plasmepsin-2
[3] = target: T1, Plasmepsin II; test: In vitro binding affinity towards Plasmodium falciparum plasmepsin-2
[4] = tested on: Plasmodium falciparum; test: In vitro inhibitory activity against chloroquine-sensitive Plasmodium falciparum D10 infected human red blood cells; type: functional, organism-based
[5] = tested on: Plasmodium falciparum; test: In vitro inhibitory activity against chloroquine-resistant Plasmodium falciparum W-2 infected human erythrocytes; type: functional, organism-based
[6] = tested on: Plasmodium falciparum; test: In vitro inhibitory activity against chloroquine-resistant Plasmodium falciparum W2 infected human erythrocytes at 9 uM; type: functional
[7] = tested on: Plasmodium falciparum; test: In vitro inhibitory activity against chloroquine-sensitive Plasmodium falciparum D-10 infected human red blood cells at 9 uM; type: functional

T1 sequence (P46925 whole entry): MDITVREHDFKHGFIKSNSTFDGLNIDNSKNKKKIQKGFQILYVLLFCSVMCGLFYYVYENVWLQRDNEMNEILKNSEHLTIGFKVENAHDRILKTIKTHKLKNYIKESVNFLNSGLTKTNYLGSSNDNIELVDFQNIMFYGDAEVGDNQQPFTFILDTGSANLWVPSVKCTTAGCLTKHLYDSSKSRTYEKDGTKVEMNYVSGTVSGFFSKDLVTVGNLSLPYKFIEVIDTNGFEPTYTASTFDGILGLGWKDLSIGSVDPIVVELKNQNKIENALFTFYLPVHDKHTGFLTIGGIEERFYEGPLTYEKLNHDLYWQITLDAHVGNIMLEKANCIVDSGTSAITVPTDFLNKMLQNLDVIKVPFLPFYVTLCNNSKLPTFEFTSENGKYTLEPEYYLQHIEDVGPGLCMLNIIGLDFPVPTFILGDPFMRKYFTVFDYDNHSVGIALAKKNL

Row | Compound | IC50 [2] | IC50 [4] | IC50 [5] | other results
1 | CCCCNC(=O)C[C@H](O)[C@H](CC(C)C)NC(=O)[C@@H](NC(=O)c1ccc(Oc2ccc(C(=O)N[C@@H](CC(C)C)C(=O)O)cc2)cc1)C(C)CC (stereo partly specified) | 123 nM | – | – | IC50 [1]: ~17 µM
2 | CCCCNC(=O)C[C@H](O)[C@H](CC(C)C)NC(=O)[C@@H](NC(=O)COc1ccc2ccccc2c1)[C@@H](C)CC | – | – | – | Ki [3]: 180 nM
3 | CCCCNC(=O)C[C@H](O)[C@H](CC(C)C)NC(=O)[C@@H](NC(=O)c1ccc2cc(C(=O)OCCCC(=O)N[C@H](CC(C)C)C(=O)N[C@H](CCCCN)C(=O)NCCCC(C)Nc3cc(OC)cc4cccnc34)ccc2c1)[C@H](C)CC (stereo partly specified) | 9.6 nM | 3.3 µM | 1000 nM | –
4 | CCCCNC(=O)C[C@H](O)[C@H](CC(C)C)NC(=O)[C@@H](NC(=O)c1ccc(Oc2ccc(C(=O)N[C@H](CC(C)C)C(=O)N[C@H](CCCCN)C(=O)NCCCC(C)Nc3cc(OC)cc4cccnc34)cc2)cc1)[C@H](C)CC (stereo partly specified) | 0.59 nM | 0.4 µM | 700 nM | –
5 | CCCCNC(=O)C[C@H](O)[C@H](CC(C)C)NC(=O)[C@@H](NC(=O)Cc1ccc(CC(=O)N[C@@H](CC(C)C)C(=O)N[C@@H](CCCCN)C(=O)NCCCC(C)Nc2cc(OC)cc3cccnc23)cc1)[C@H](C)CC (stereo partly specified) | 135 nM | 5.5 µM | 4200 nM | –
6 | CCCCNC(=O)C[C@H](O)[C@H](CC(C)C)NC(=O)[C@@H](NC(=O)c1ccc2cc(C(=O)N[C@H](CC(C)C)C(=O)N[C@H](CCCCN)C(=O)NCCCC(C)Nc3cc(OC)cc4cccnc34)ccc2c1)[C@H](C)CC (stereo partly specified) | 1.51 nM | 6.2 µM | 4700 nM | –
7 | CCCCNC(=O)C[C@H](O)[C@H](Cc1ccccc1)NC(=O)[C@@H](NC(=O)COc1ccc2ccccc2c1)[C@@H](C)CC | – | – | – | Ki [3]: 110 nM
8 | COc1cc(NC(C)CCCNC(=O)[C@@H](N)CCCCN)c2ncccc2c1 (stereo partly specified) | > 1000 nM | – | – | IC50 [1]: ~20 µM
9 | CCCCNC(=O)C[C@H](O)[C@H](CC(C)C)NC(=O)[C@@H](NC(=O)CCC(=O)N[C@@H](CC(C)C)C(=O)N[C@@H](CCCCN)C(=O)NCCCC(C)Nc1cc(OC)cc2cccnc12)[C@H](C)CC (stereo partly specified) | 396 nM | – | – | inhibition at 9 µM [6]: 40%; inhibition at 9 µM [7]: 20%
